Columns and labels:
Myosin-IIIb = Myosin-IIIb (Homo sapiens, UniProt Q8WXR4); assay: Binding affinity to recombinant full-length N-terminal His-FLAG-GST-tagged MYO3B (unknown origin) (1 to 362 residues) expressed in baculovirus infected Sf9 insect cells incubated for 1 hr by TR-FRET assay
[1] = molecular target: Tyrosine-protein kinase Lyn (Homo sapiens, UniProt P07948); assay: Binding affinity to recombinant full-length N-terminal His-FLAG-GST-tagged LYN (unknown origin) expressed in baculovirus infected Sf9 insect cells incubated for 1 hr by TR-FRET assay
[2] = molecular target: Maternal embryonic leucine zipper kinase (Homo sapiens, UniProt Q14680); assay: Binding affinity to recombinant full-length N-terminal His-FLAG-GST-tagged MELK (unknown origin) (1 to 493 residues) expressed in baculovirus infected Sf9 insect cells incubated for 1 hr by TR-FRET assay
[3] = molecular target: Serine/threonine-protein kinase MRCK alpha (Homo sapiens, UniProt Q5VT25); assay: Binding affinity to recombinant full-length N-terminal His-FLAG-GST-tagged CDC42BPA (unknown origin) (1 to 574 residues) expressed in baculovirus infected Sf9 insect cells incubated for 1 hr by TR-FRET assay
[4] = molecular target: Phosphorylase b kinase gamma catalytic chain, skeletal muscle/heart isoform (Homo sapiens, UniProt Q16816); assay: Binding affinity to recombinant full-length N-terminal His-FLAG-GST-tagged PHKG1 (unknown origin) expressed in baculovirus infected Sf9 insect cells incubated for 1 hr by TR-FRET assay
Phosphorylase b kinase gamma catalytic chain, skeletal muscle/heart isoform, sequence (Q16816 whole entry, canonical isoform): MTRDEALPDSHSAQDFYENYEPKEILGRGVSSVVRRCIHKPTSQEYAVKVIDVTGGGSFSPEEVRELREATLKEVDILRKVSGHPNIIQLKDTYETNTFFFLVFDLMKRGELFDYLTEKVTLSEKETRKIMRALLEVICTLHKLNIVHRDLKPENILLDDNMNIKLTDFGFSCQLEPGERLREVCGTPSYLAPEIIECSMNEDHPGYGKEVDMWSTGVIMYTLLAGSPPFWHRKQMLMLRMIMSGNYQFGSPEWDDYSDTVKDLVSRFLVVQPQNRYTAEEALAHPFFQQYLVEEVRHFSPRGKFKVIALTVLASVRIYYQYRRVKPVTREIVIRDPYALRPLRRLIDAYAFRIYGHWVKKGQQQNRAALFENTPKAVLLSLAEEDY

[5] = molecular target: Inhibitor of nuclear factor kappa-B kinase subunit epsilon (Homo sapiens, UniProt Q14164); assay: Binding affinity to recombinant full-length N-terminal His-FLAG-GST-tagged IKBKE (unknown origin) expressed in baculovirus infected Sf9 insect cells incubated for 1 hr by TR-FRET assay
[6] = molecular target: Mitogen-activated protein kinase kinase kinase kinase 2 (Homo sapiens, UniProt Q12851); assay: Binding affinity to recombinant full-length N-terminal His-FLAG-GST-tagged MAP4K2 (unknown origin) expressed in baculovirus infected Sf9 insect cells incubated for 1 hr by TR-FRET assay
[7] = molecular target: Serine/threonine-protein kinase 32B (Homo sapiens, UniProt Q9NY57); assay: Binding affinity to recombinant full-length N-terminal His-FLAG-GST-tagged STK32B (unknown origin) expressed in baculovirus infected Sf9 insect cells incubated for 1 hr by TR-FRET assay
Serine/threonine-protein kinase 32B, sequence (Q9NY57 whole entry): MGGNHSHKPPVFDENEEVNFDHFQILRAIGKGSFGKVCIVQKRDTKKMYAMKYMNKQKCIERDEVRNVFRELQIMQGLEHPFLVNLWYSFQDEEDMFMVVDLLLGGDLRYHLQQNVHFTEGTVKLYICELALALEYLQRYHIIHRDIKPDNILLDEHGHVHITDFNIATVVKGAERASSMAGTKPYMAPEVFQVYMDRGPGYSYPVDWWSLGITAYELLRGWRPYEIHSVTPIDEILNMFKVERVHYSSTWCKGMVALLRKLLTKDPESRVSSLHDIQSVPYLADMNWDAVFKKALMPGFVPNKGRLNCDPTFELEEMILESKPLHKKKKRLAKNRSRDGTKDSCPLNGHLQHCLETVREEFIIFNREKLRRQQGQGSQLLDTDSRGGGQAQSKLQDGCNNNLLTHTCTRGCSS

[8] = molecular target: Mitogen-activated protein kinase kinase kinase kinase 5 (Homo sapiens, UniProt Q9Y4K4); assay: Binding affinity to recombinant full-length N-terminal His-FLAG-GST-tagged MAP4K5 (unknown origin) expressed in baculovirus infected Sf9 insect cells incubated for 1 hr by TR-FRET assay
[9] = molecular target: Serine/threonine-protein kinase 38-like (Homo sapiens, UniProt Q9Y2H1); assay: Binding affinity to recombinant full-length N-terminal His-FLAG-GST-tagged STK38L (unknown origin) expressed in baculovirus infected Sf9 insect cells incubated for 1 hr by TR-FRET assay
Serine/threonine-protein kinase 38-like, sequence (Q9Y2H1 whole entry): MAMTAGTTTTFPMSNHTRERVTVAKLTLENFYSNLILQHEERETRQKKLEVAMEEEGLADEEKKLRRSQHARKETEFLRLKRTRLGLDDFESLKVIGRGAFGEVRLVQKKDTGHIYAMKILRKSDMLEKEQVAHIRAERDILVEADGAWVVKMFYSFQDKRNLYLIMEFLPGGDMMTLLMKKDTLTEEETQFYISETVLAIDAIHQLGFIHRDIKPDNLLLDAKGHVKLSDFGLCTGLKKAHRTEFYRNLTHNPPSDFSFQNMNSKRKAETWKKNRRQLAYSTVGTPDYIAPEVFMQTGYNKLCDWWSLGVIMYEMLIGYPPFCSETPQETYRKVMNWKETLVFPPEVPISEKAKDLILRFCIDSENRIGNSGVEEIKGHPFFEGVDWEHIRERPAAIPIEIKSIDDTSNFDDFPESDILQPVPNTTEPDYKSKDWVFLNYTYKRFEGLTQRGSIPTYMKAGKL

[10] = molecular target: Dual specificity protein kinase CLK2 (Homo sapiens, UniProt P49760); assay: Binding affinity to recombinant full-length N-terminal His-FLAG-GST-tagged CLK2 (unknown origin) expressed in baculovirus infected Sf9 insect cells incubated for 1 hr by TR-FRET assay
[11] = molecular target: Testis-specific serine/threonine-protein kinase 1 (Homo sapiens, UniProt Q9BXA7); assay: Binding affinity to recombinant full-length N-terminal His-FLAG-GST-tagged TSSK1B (unknown origin) expressed in baculovirus infected Sf9 insect cells incubated for 1 hr by TR-FRET assay
[12] = molecular target: Serine/threonine-protein kinase 17A (Homo sapiens, UniProt Q9UEE5); assay: Binding affinity to recombinant full length N-terminal His-FLAG-GST-tagged STK17A (unknown origin) expressed in baculovirus infected Sf9 insect cells incubated for 1 hr by TR-FRET assay
[13] = molecular target: Fibroblast growth factor receptor 4 (Homo sapiens, UniProt P22455); assay: Binding affinity to recombinant N-terminal His-FLAG-GST-tagged FGFR4 (unknown origin) (460 to 802 residues) expressed in baculovirus infected Sf9 insect cells incubated for 1 hr by TR-FRET assay
[14] = molecular target: Calcium/calmodulin-dependent protein kinase type II subunit gamma (Homo sapiens, UniProt Q13555); assay: Binding affinity to recombinant full-length N-terminal His-FLAG-GST-tagged CAMK2G (unknown origin) expressed in baculovirus infected Sf9 insect cells incubated for 1 hr in presence of calmodulin by TR-FRET assay
Calcium/calmodulin-dependent protein kinase type II subunit gamma, sequence (Q13555 whole entry): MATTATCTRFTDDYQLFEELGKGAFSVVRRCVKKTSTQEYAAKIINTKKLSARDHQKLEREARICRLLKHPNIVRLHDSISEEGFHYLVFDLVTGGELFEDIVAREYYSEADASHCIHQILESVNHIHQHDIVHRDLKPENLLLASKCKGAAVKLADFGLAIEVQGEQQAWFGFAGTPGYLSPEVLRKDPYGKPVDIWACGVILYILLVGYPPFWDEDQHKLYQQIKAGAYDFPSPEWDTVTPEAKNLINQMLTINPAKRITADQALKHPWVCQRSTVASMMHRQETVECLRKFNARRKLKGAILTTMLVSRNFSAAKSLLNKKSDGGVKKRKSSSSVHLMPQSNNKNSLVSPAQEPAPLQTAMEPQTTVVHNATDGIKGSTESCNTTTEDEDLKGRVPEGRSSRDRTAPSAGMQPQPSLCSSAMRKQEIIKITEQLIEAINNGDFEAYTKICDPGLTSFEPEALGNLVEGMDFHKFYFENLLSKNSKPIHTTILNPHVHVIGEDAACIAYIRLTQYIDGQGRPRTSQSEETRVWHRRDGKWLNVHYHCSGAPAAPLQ

[15] = molecular target: Serine/threonine-protein kinase Sgk2 (Homo sapiens, UniProt Q9HBY8); assay: Binding affinity to recombinant full-length N-terminal His-FLAG-tagged SGK2 (unknown origin) expressed in baculovirus infected Sf9 insect cells incubated for 1 hr by TR-FRET assay
Serine/threonine-protein kinase Sgk2, sequence (Q9HBY8 whole entry, the tested form may be a part): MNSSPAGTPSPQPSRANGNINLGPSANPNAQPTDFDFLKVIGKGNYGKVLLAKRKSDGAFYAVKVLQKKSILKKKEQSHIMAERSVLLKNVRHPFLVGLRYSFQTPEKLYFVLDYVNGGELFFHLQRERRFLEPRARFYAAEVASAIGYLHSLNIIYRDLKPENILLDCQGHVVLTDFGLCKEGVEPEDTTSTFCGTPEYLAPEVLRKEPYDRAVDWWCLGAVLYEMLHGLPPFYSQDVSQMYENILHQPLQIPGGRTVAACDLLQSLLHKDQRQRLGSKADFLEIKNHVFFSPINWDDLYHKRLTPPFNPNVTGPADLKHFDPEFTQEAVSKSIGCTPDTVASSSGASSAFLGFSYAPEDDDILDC

[16] = molecular target: Homeodomain-interacting protein kinase 3 (Homo sapiens, UniProt Q9H422); assay: Binding affinity to recombinant N-terminal His-FLAG-GST-tagged HIPK3 (unknown origin) (161 to 562 residues) expressed in baculovirus infected Sf9 insect cells incubated for 1 hr by TR-FRET assay
Homeodomain-interacting protein kinase 3, sequence (Q9H422 whole entry, the tested form may be a part): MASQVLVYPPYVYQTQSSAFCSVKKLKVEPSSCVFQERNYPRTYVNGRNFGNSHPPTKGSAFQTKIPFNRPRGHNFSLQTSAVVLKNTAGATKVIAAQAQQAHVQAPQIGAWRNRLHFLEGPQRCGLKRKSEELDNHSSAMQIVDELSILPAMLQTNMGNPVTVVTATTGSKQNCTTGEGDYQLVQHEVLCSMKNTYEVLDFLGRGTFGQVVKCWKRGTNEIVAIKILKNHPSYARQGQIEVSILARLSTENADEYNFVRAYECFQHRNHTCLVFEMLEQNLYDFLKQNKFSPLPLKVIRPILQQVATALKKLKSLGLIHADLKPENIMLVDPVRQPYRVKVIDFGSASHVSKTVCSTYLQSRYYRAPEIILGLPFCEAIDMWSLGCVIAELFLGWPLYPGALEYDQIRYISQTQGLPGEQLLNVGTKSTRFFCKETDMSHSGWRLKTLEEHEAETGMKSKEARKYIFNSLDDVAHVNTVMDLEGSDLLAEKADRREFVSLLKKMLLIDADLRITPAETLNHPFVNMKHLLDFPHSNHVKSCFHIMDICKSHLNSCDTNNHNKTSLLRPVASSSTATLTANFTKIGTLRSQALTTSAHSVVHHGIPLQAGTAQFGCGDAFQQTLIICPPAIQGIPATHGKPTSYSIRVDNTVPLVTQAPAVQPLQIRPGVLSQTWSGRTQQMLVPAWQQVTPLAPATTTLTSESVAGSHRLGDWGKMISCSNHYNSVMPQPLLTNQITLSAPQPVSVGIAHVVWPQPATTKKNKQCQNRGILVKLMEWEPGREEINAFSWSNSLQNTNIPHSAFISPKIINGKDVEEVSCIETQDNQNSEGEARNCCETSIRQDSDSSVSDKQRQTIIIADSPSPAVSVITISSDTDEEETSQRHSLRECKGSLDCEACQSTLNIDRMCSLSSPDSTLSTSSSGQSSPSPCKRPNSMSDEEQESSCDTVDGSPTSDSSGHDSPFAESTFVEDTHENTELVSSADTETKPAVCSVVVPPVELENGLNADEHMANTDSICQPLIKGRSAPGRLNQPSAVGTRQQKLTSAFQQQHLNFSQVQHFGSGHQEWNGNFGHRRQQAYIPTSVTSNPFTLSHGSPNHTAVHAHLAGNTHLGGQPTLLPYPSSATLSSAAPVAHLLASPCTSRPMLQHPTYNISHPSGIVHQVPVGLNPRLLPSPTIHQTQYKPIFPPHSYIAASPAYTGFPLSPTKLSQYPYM

[17] = molecular target: MAP kinase-interacting serine/threonine-protein kinase 2 (Homo sapiens, UniProt Q9HBH9); assay: Binding affinity to recombinant human full-length N-terminal GST-tagged MKNK2 expressed in baculovirus expression system using RS peptide as substrate incubated for 1 hr by TR-FRET assay
[18] = molecular target: Vascular endothelial growth factor receptor 2 (Homo sapiens, UniProt P35968); assay: Binding affinity to recombinant human full length N-terminal GST-tagged KDR (790 to 1356 residues) expressed in baculovirus expression system using CSKtide as substrate incubated for 1 hr by TR-FRET assay
[19] = molecular target: Serine/threonine-protein kinase D2 (Homo sapiens, UniProt Q9BZL6); assay: Binding affinity to recombinant full-length N-terminal His-FLAG-tagged PRKD2 (unknown origin) expressed in baculovirus infected Sf9 insect cells incubated for 1 hr by TR-FRET assay
Serine/threonine-protein kinase D2, sequence (Q9BZL6 whole entry): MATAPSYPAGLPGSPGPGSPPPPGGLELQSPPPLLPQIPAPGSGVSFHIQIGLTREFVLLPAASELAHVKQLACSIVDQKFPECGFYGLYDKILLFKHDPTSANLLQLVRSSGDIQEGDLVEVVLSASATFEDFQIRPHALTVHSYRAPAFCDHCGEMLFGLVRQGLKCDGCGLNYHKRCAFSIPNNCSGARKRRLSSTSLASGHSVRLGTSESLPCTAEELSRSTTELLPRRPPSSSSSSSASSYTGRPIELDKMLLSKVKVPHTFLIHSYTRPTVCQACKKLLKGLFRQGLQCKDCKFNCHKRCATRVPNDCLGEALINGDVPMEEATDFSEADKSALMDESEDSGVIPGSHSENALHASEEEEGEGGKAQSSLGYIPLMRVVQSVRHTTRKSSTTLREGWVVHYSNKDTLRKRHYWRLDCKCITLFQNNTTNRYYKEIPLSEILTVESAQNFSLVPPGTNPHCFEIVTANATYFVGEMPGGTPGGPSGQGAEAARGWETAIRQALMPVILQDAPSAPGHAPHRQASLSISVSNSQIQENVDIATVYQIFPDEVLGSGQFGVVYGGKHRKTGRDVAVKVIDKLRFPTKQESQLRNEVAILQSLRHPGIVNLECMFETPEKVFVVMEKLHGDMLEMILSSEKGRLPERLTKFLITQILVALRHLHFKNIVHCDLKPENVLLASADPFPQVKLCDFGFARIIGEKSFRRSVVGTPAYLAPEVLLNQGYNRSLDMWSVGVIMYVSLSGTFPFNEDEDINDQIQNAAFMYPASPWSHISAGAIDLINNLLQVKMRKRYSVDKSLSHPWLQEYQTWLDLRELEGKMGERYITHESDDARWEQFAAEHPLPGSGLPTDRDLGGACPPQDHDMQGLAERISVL

[20] = molecular target: Protein kinase C eta type (Homo sapiens, UniProt P24723); assay: Binding affinity to recombinant full-length N-terminal His-FLAG-GST-tagged PRKCH (unknown origin) expressed in baculovirus infected Sf9 insect cells incubated for 1 hr by TR-FRET assay
Protein kinase C eta type, sequence (P24723 whole entry): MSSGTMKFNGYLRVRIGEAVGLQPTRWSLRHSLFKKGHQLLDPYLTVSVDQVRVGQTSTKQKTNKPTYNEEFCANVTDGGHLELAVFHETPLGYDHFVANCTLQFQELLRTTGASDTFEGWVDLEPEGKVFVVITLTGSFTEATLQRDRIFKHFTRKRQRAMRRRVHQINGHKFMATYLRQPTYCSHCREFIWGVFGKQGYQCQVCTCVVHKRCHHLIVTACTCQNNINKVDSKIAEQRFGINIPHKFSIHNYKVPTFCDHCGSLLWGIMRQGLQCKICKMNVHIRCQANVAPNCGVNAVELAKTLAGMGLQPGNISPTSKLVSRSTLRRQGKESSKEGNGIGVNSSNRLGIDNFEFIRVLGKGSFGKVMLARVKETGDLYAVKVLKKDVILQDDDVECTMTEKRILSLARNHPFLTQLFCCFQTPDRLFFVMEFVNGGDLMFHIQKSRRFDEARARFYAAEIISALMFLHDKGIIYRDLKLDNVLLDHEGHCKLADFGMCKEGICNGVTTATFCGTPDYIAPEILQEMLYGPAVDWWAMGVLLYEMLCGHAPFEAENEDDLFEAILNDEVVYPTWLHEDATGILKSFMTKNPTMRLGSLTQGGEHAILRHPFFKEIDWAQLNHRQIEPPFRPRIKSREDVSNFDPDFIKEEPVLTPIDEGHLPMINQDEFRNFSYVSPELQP

[21] = molecular target: Serine/threonine-protein kinase ULK3 (Homo sapiens, UniProt Q6PHR2); assay: Binding affinity to recombinant full-length N-terminal His-FLAG-GST-tagged ULK3 (unknown origin) expressed in baculovirus infected Sf9 insect cells incubated for 1 hr by TR-FRET assay
Focal adhesion kinase 1 = Focal adhesion kinase 1 (Homo sapiens, UniProt Q05397); assay: Binding affinity to recombinant human full length N-terminal GST-tagged PTK2 expressed in baculovirus expression system incubated for 1 hr by TR-FRET assay
[22] = molecular target: AP2-associated protein kinase 1 (Homo sapiens, UniProt Q2M2I8); assay: Binding affinity to recombinant full-length N-terminal His-FLAG-GST-tagged AAK1 (unknown origin) expressed in baculovirus infected Sf9 insect cells incubated for 1 hr by TR-FRET assay

Row | Compound | Kd (Myosin-IIIb) | Kd [1] | Kd [2] | Kd [3] | Kd [4] | Kd [5] | Kd [6] | Kd [7] | Kd [8] | Kd [9] | Kd [10] | Kd [11] | Kd [12] | Kd [13] | Kd [14] | Kd [15] | Kd [16] | Kd [17] | Kd [18] | Kd [19] | other results
1 | CO[C@@H]1[C@H](NCCOCCOCCOCCNC(=O)CCC2=[N+]3C(=Cc4c(C)cc(C)n4[B-]3(F)F)C=C2)C[C@H]2O[C@]1(C)n1c3ccccc3c3c4c(c5c6ccccc6n2c5c31)C(=O)NC4 | 328 nM | 63 nM | 50 nM | 43 nM | 1 nM | 58 nM | 6 nM | 446 nM | 87 nM | 759 nM | 318 nM | 18 nM | 258 nM | 718 nM | 8 nM | 1220 nM | 798 nM | 162 nM | 193 nM | 79 nM | Kd [20]: 61 nM; Kd [21]: 16 nM; Kd (Focal adhesion kinase 1): 401 nM; Kd [22]: 6 nM
2 | CO[C@@H]1[C@H](N(C)CCOCCOCCOCCNC(=O)CCC2=[N+]3C(=Cc4c(C)cc(C)n4[B-]3(F)F)C=C2)C[C@H]2O[C@]1(C)n1c3ccccc3c3c4c(c5c6ccccc6n2c5c31)C(=O)NC4 | 294 nM | 116 nM | 41 nM | 25 nM | 3 nM | 44 nM | 7 nM | 984 nM | 377 nM | > 2000 nM | 396 nM | 19 nM | 367 nM | 1490 nM | 9 nM | 1770 nM | 1030 nM | 205 nM | 135 nM | 140 nM | Kd [20]: 37 nM; Kd [21]: 14 nM; Kd (Focal adhesion kinase 1): 308 nM; Kd [22]: 5 nM

Reference: ChEMBL document CHEMBL4321812, “Structure-based rational design of staurosporine-based fluorescent probe with broad-ranging kinase affinity for kinase panel application” (Bioorg Med Chem Lett, 2019)
